# Like-named read-outs stand apart in the source and are kept apart here.
# Tested on: explant tissue from the dermoepidermal junction of the hoof
# Type: cell-based
# Procedure: An in vitro study was conducted to analyze the protective effects of tirilazad mesylate on cellular degeneration as a result of Bothrops alternatus snake venom as a model for laminitis. Explant tissue samples were obtained from the dermoepidermal junction of the hoof of the right forelimb under nervous system block without the need for euthanasia.
# Under sterile conditions, laminar cuts (mini-explants) were made of each explant and the tissue washed with physiological solution. The mini-explants were pre-incubated for 5 hours with tirilazad and then for 24 hours with Bothrops venom. Culture medium was as follows: Dulbecco's […] (DMEM, GIBCO-Invitrogen) with 10% heat-inactivated fetal bovine serum (FBS, GIBCO-Invitrogen), L-Glutamine (29.2 mg/mL), Penicillin (10,000 units/mL), and Streptomycin (10,000 μg/mL, GIBCO-Invitrogen) as antibiotics.
# Histopathology: Tissues were processed with classical histological techniques, e.g., cutting by microtome (Minot) and stained with hematoxylin-eosin (H-E) and Periodic Acid Schiff (PAS) stains.
# [1] = Tirilazad 1 μM (5 hours pre-incubation) + venom 75 μg/ml (24 hours), listed as tirilazad
# [2] = Tirilazad 1 μM alone, no venom, listed as tirilazad
# [3] = Tirilazad 3 μM (5 hours pre-incubation) + venom 75 μg/ml (24 hours)
# [4] = Tirilazad 3 μM alone, no venom, listed as tirilazad
# [5] = Tirilazad 10 μM (5 hours pre-incubation) + venom 75 μg/ml (24 hours), listed as tirilazad
# [6] = Tirilazad 10 μM alone, no venom
# [7] = Tirilazad 10 μM alone, no venom, listed as tirilazad
# [8] = Tirilazad 20 μM (5 hours pre-incubation) + venom 75 μg/ml (24 hours)
# [9] = Tirilazad 20 μM alone, no venom
compound,measurement,setting,value
"C[C@@H]1C[C@H]2[C@@H]3CCC4=CC(=O)C=C[C@]4(C)C3=CC[C@]2(C)[C@H]1C(=O)CN1CCN(c2cc(N3CCCC3)nc(N3CCCC3)n2)CC1 [Tirilazad, 16α-methyl-21-[4-[2,6-bis(1-pyrrolidinyl)-4-pyrimidinyl]-1-piperazinyl]pregna-1,4,9(11)-triene-3,20-dione]",Separation of Basement Membrane,Tirilazad 1 μM (5 hours pre-incubation) + venom 75 μg/ml (24 hours),No
same,Cell Nuclei,[1],intense presence of altered epidermal cells
same,Pyknosis or Karyopyknosis,[1],nuclear pyknosis
same,Separation of Basement Membrane,[1],did not show separation of the basement membrane
same,Pyknosis or Karyopyknosis,"Tirilazad 1 μM alone, no venom",No
same,Separation of Basement Membrane,"Tirilazad 1 μM alone, no venom",No
same,Cell Nuclei,[2],epidermal cells were normal and showed preserved cytoplasmic and nuclear structure
same,Separation of Basement Membrane,[2],did not show separation of the basement membrane
same,Cell Nuclei,[3],intense presence of altered epidermal cells
same,Pyknosis or Karyopyknosis,[3],nuclear pyknosis predominating
same,Separation of Basement Membrane,[3],slight separation of the basement membrane
same,Separation of Basement Membrane,"Tirilazad 3 μM alone, no venom",No
same,Cell Nuclei,[4],slight epidermal cytoplasmic and nuclear alteration
same,Separation of Basement Membrane,[4],did not show separation of the basement membrane
same,Separation of Basement Membrane,Tirilazad 10 μM (5 hours pre-incubation) + venom 75 μg/ml (24 hours),No
same,Cell Nuclei,[5],Moderate presence of altered epidermal cells
same,Pyknosis or Karyopyknosis,[5],moderate nuclear pyknosis
same,Separation of Basement Membrane,[5],did not show separation of the basement membrane
same,Pyknosis or Karyopyknosis,[6],No
same,Separation of Basement Membrane,[6],No
same,Cell Nuclei,[7],epidermal cells were normal and showed preserved cytoplasmic and nuclear structure
same,Separation of Basement Membrane,[7],did not show separation of the basement membrane
same,Cell Nuclei,[8],intense presence of altered epidermal cells
same,Pyknosis or Karyopyknosis,[8],intense nuclear pyknosis
same,Separation of Basement Membrane,[8],intense separation of the basement membrane
same,Cell Nuclei,[9],epidermal cells were normal and showed preserved cytoplasmic and nuclear structure
same,Pyknosis or Karyopyknosis,[9],No
same,Separation of Basement Membrane,[9],intense separation of the basement membrane
same,Effect on cellular structure in hoof tissue (overall conclusion),summary of the explant study,provides a protective and/or therapeutic effect on cellular structure in hoof tissue

# — patent publication US20240285653A1, “COMPOSITIONS AND METHODS FOR TREATMENT AND PREVENTION OF DISEASES UTILIZING TIRILAZAD SALTS” (priority 2022, published 2024)
